Source: publication PMC3573960 (Molecular Neurodegeneration, 2012)

Key:
[1] = biological target: T1, COX-2 (Homo sapiens, UniProt P35354); experiment: COX-2 enzyme assay (Cerep); type: biochemical; conditions: at 30 μM, human recombinant, arachidonic acid 2 μM
T1 construct: purchased Cerep (Redmond, WA) 0727; host or cells: Sf9
T1 sequence (P35354 18-604): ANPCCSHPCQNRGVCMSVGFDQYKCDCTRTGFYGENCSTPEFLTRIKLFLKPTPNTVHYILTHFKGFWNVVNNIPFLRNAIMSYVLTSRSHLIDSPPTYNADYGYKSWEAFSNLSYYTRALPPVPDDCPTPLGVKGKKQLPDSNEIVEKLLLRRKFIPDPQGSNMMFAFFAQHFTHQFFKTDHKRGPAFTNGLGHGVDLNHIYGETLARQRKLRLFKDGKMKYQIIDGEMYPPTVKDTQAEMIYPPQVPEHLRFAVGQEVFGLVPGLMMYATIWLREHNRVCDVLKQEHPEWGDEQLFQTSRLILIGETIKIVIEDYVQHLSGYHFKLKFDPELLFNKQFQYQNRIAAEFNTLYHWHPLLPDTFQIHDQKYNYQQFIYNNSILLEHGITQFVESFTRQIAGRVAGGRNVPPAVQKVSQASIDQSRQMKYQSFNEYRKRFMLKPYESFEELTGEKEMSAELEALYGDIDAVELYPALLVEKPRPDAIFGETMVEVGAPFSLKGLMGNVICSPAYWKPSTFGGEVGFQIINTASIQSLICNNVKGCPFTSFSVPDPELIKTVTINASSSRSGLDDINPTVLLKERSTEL
Procedure: (§1) COX-1 and COX-2 enzyme assays were performed by Cerep (Redmond, WA, Catalog # 0726 and 0727). Briefly, the assays used human recombinant Sf9 cells and arachidonic acid (4 μM for COX-1 and 2 μM for COX-2) as the substrate. Production of PGE2 was detected by enzyme immunoassay.

[2] = test system: Tg2576 mice; experiment: Chronic treatment of Tg2576 mice, sequentially extracted brain Aβ by ELISA; type: in vivo, mouse; conditions: 50 weeks
Text: Male Tg2576 and WT mice were both derived from crosses of male Tg2576 mice and female B6SJLF1 mice (Taconic) and were singly housed upon arrival. […] Some animals were euthanized as described above. For histological studies, a subset of mice were euthanized by CO2 asphyxiation and transcardially perfused with cold 0.9% NaCl. […] The left cerebral hemisphere was cut into 2 pieces, weighed, and frozen.

[3] = test system: Aph1AL containing γ-secretase complexes; experiment: Cell-free AICD production from APP β-CTF (Western blot); type: biochemical, murine; conditions: up to 100 μM
Procedure: DAPT was used as a reference positive control for the assay. For each assay condition, a 5-μL microsomal fraction, containing 1% CHAPSO (3-[(3-cholamidopropyl)dimethylammonio]-2-hydroxy-1-propanesulfonate) from murine embryonic fibroblasts (MEF) lacking the Aph-1A, Aph-1B, and Aph-1C genes (triple knock out) and rescued with Aph-1AL, was prepared in a reaction mixture of 5 μL substrate (recombinant APP β-CTF 3-Flag-tagged) at 0.8 μM, 0.0125% phosphatidylethanolamine, 0.1%, phosphatidylcholine, 0.05% sphingomyelin, and 8.9 μL PIPES (piperazine-N,N′-bis[−ethanesulfonic acid]) buffer. […] For detection of AICD, one-half of the reaction mixture was purified by a methanol-chloroform extraction in order to remove lipids and hydrophobic proteins (e.g., APP β-CTF). This purified fraction was further analyzed by SDS-PAGE and Western blotting. AICD was detected with an ANTI-FLAG® antibody (Sigma-Aldrich). The other half of the reaction mixture was used to analyze the levels of Aβ1-40 and Aβ1-42 by AlphaLisa (Perkin Elmer, Waltham, MA).

[4] = test system: γ-secretase (NotchΔE); experiment: NICD production (S3 cleavage of NotchΔE) in transfected HEK293 cells; conditions: HEK293 cells expressing NotchΔE, 20 h, up to 30 μM
Procedure: HEK293 cells (700,000 cells per assay condition) were transiently transfected with a NotchΔE, myc-tagged construct to produce a truncated Notch1 substrate, which is constitutively cleaved by γ-secretase (S3 cleavage) [62]. Control transfections were performed with an empty vector. […] The amounts of NICD and total Notch were quantified and NICD was expressed as a percentage of total Notch. The DMSO control condition was set at 100%. Cell viability was determined using the CellTiter-Blue® Cell Viability Assay (Promega).

[5] = test system: Tg2576 mice; experiment: Contextual fear conditioning assay
Procedure: Animals in the food formulation groups were maintained on the compound formulated diets. The training session on day 1 consisted of the following sequence: 3 min acclimation to the test chamber (Kinder Scientific, Poway, CA), 2 s 1.5 mA foot shock, 2 min wait period, another 2 s 1.5 mA foot shock, followed by a final 1 min wait period. On day 2, testing consisted of returning the animals to the chamber for 5 min and the total time spent freezing was measured by an automated software system (Kinder Scientific). […] Percentage of time spent freezing for each mouse was calculated using the formula: (number of seconds with zero beam breaks/300) X 100.

[6] = test system: Tg2576 mice; experiment: Western blot of APP species and total Aβ in Tg2576 mouse brain; type: in vivo; conditions: 50 weeks
Procedure: For determination of APP α- and β-CTFs in Tg2576 mouse brain, hemisphere samples were thawed in ice-cold homogenization buffer (150 mg of tissue/mL, 50 mM Tris and 150 mM NaCl, pH 7.4) with protease inhibitor cocktail (Mini Complete™, Roche Applied Science, Penzberg, Germany). Homogenized samples were spun at 435,000 g for 50 min at 4°C. The supernatant was discarded and the pellet resuspended in the same volume of homogenization buffer containing 0.5% Triton®-X 100, 1% deoxycholate, and 3% SDS. The pellets were triturated with a pipette until resuspended and incubated on a rotator for 1 h at 4°C. The samples were then centrifuged at 435,000 g for 50 min at 4°C and the detergent-soluble supernatant was collected. Protein concentration for membrane (detergent soluble) fraction was determined using the BCA method (Pierce, Rockford, IL). Thirty micrograms of total protein were separated on a Tricine 10-20% gel (Invitrogen) and transferred to a nitrocellulose membrane. Blots were probed with an anti-APP-CTF antibody (Sigma-Aldrich) or anti-Aβ antibody (clone 6E10) followed by incubation with IRDye secondary antibodies (Li-Cor Biosciences).
Male Tg2576 and WT mice were both derived from crosses of male Tg2576 mice and female B6SJLF1 mice (Taconic) and were singly housed upon arrival. […] Some animals were euthanized as described above. For histological studies, a subset of mice were euthanized by CO2 asphyxiation and transcardially perfused with cold 0.9% NaCl. The right hemispheres were immersion fixed in fresh 4% paraformaldehyde in 0.1 M phosphate buffer, pH 7.4 for 1 h, transferred to a 15% sucrose cryoprotectant for 24 h at room temperature, and on the next day, frozen in isopentane chilled by dry ice for 1 min. The left cerebral hemisphere was cut into 2 pieces, weighed, and frozen.

[7] = test system: γ-secretase; experiment: H4-APP751 cell-based assay for secreted Aβ peptides (sandwich ELISA); design: species or system human; conditions: H4-APP751 cells, up to 3 μM
Procedure: Human neuroglioma H4 cells (ATCC, Manassas, VA) were transfected with a pcDNA3.1 (Invitrogen, Carlsbad, CA) plasmid expressing human wild type APP751 cDNA; and a stable cell line was generated using G418 (Invitrogen) selection [55]. Prior to experimentation, H4-APP751 cells were maintained in Dulbecco’s modified Eagle’s high glucose medium with 10% fetal bovine serum, 1% penicillin-streptomycin, 2 mM L-glutamine, and 0.4 mg/mL G418. All culture reagents were from Invitrogen.
Plates were incubated overnight (16–18 h) and supernatant was removed for quantification of Aβ peptides by sandwich ELISA. Cytotoxicity was evaluated using CellTiter 96® AQueous One Solution Cell Proliferation Assay (MTS Assay, Promega, Madison, WI) according to the manufacturer’s protocol.
Aβ peptide levels were quantified by sandwich ELISA. […]
Freshly collected samples of cultured cell supernatant or synthetic peptides (American Peptide Co., Sunnyvale, CA or California Peptide Research, Inc., Napa, CA) for standard curves were diluted with media, and loaded into anti-Aβ antibody-coated plates and incubated at 4°C for about 24 h. Aβ peptides were detected with the 4G8 antibody (Aβ, aa 17–24) conjugated to horseradish peroxidase (Covance, Inc., Princeton, NJ), and SureBlue 3,3’,5,5’-tetramethylbenzidine (TMB) peroxidase substrate (KPL, Inc., Gaithersburg, MA). […]

[8] = biological target: T2, COX-1 (Homo sapiens, UniProt P23219); experiment: COX-1 enzyme assay (Cerep); type: biochemical; conditions: human recombinant, arachidonic acid 4 μM
T2 construct: purchased Cerep (Redmond, WA) 0726; host or cells: Sf9
Procedure: as §1

[9] = test system: γ-secretase (EphA4); experiment: EphA4 CTF accumulation in rat primary neocortical cultures (Western blot); conditions: 24 h, up to 10 μM
Procedure: Protein concentration of the lysate was determined by the BCA method, and 30 μg of total protein were loaded on a 10% Bis-Tris gel (Invitrogen). EphA4 CTF was visualized using an anti-EphA4-CTF antibody (Abnova, Walnut, CA) and an IRDye800CW® secondary antibody (Rockland Immunochemicals, Inc., Gilbertsville, PA). Detection was performed using an Odyssey scanner (LiCor Biosciences) and blots quantified using ImageJ software (available at http://rsbweb.nih.gov/ij).

T2 sequence (P23219 24-599): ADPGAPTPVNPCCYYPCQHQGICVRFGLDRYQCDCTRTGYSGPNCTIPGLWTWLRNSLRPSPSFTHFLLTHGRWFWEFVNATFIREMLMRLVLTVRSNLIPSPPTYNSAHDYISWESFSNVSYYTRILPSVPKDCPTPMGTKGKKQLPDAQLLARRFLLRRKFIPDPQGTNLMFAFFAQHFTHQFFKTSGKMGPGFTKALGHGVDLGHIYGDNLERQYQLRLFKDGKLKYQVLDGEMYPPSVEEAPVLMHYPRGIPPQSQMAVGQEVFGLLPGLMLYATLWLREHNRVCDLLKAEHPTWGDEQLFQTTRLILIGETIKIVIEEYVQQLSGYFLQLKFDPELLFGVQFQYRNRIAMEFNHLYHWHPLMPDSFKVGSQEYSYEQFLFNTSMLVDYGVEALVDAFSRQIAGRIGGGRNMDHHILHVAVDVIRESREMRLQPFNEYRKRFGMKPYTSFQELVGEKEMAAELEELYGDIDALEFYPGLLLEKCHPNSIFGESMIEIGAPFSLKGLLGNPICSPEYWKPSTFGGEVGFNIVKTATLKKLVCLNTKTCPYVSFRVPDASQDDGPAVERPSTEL

O=C(O)[C@H](CC1CCC1)c1cc(Cl)c(OCC(F)(F)F)c(-c2ccc(C(F)(F)F)cc2)c1 [EVP-0015962, (R)-2-(5-chloro-6-(2,2,2-trifluoroethoxy)-4’-(trifluoromethyl)biphenyl-3-yl)-3-cyclobutylpropanoic acid]
percent inhibition for COX-2 [1]: 56% | Aβ38 in the TBS soluble fraction ([2]; 20 mg/kg/day): did not produce a significant increase | percent reduction in Aβ42 in the TBS soluble fraction ([2]; 20 mg/kg/day): 53% | reduction in AβTotal in the formic acid extractable fraction ([2]; 20 mg/kg/day): 49% | reduction in formic acid extractable Aβ42 ([2]; 20 mg/kg/day): 53% | age-related increase in soluble and insoluble Aβ42 ([2]; 60 mg/kg/day): prevented the dramatic increase | increase in Aβ38 in the TBS soluble fraction ([2]; 60 mg/kg/day): 78% | percent reduction in Aβ42 in the TBS soluble fraction ([2]; 60 mg/kg/day): 89% | reduction in AβTotal in the formic acid extractable fraction ([2]; 60 mg/kg/day): 64% | reduction in formic acid extractable Aβ42 ([2]; 60 mg/kg/day): 86% | Aβ38 in the formic acid extractable fraction ([2]; 20 or 60 mg/kg/day): not significantly changed | AβTotal in the TBS soluble fraction ([2]; 20 or 60 mg/kg/day): unchanged | age-related increase in Aβ42 ([2]; lower dose (20 mg/kg/day)): partially effective | production of AICD from APP β-CTF [3]: did not prevent | levels of NICD produced [4]: did not affect | genotype-associated deficit in percent freezing (CFC) ([5]; 20 or 60 mg/kg/day in food, 11 weeks (p < 0.01)): reversed | genotype-associated deficit in percent freezing (CFC) ([5]; single dose 30 mg/kg p.o., 3 h prior to training): did not reverse this deficit | reduction in total Aβ by Western blot vs control diet ([6]; 20 mg/kg/day): 42% | reduction in total Aβ by Western blot vs control diet ([6]; 60 mg/kg/day): 81% | levels of full length APP, β-CTF, and α-CTF in brain ([6]; 20 or 60 mg/kg/day): no increases | levels of AβTotal [7]: remained unchanged | IC50 [8]: > 10 µM | EphA4 CTF accumulation [9]: did not result in EphA4 CTF accumulation
